“And” between values parts separate entries of the source, which are not always exact repeats. Equal entries are not always repeated. Toxic doses and inconclusive results are not listed. No stated cut-off is given here; in the data, active means T/C of 150% or more; inactive means T/C below 125%.
Tested on: L1210 leukemia ip in BDF1 mice, survival T/C
Test: NCI In Vivo Anticancer Drug Screen. Data for tumor model L1210 Leukemia (intraperitoneal) in B6D2F1 (BDF1) mice
Settings: endpoint: mean survival time, higher = longer survival
In short: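 Transplantable tumor model; survival measured in treated vs vehicle control mice. Value = treated/control.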

[1] = dose: 100.0 mg/kg/injection, schedule: Q01DX001 (ip), vehicle: saline
[2] = dose: 100.0 mg/kg/injection, schedule: Q04DX003 (ip), vehicle: saline
[3] = dose: 200.0 mg/kg/injection, schedule: Q01DX001 (ip), vehicle: saline
[4] = dose: 200.0 mg/kg/injection, schedule: Q04DX003 (ip), vehicle: saline
[5] = dose: 400.0 mg/kg/injection, schedule: Q01DX001 (ip), vehicle: saline
[6] = dose: 400.0 mg/kg/injection, schedule: Q04DX003 (ip), vehicle: saline
[7] = dose: 100.0 mg/kg/injection, schedule: Q01DX009 (ip), vehicle: Klucel (hydroxypropylcellulose) (HPC)
[8] = dose: 200.0 mg/kg/injection, schedule: Q01DX009 (ip), vehicle: Klucel (hydroxypropylcellulose) (HPC)
[9] = dose: 400.0 mg/kg/injection, schedule: Q01DX009 (ip), vehicle: Klucel (hydroxypropylcellulose) (HPC)
[10] = dose: 100.0 mg/kg/injection, schedule: Q04DX003 (ip), vehicle: Klucel (hydroxypropylcellulose) (HPC)
[11] = dose: 200.0 mg/kg/injection, schedule: Q04DX003 (ip), vehicle: Klucel (hydroxypropylcellulose) (HPC)
[12] = dose: 400.0 mg/kg/injection, schedule: Q04DX003 (ip), vehicle: Klucel (hydroxypropylcellulose) (HPC)
[13] = dose: 25.0 mg/kg/injection, schedule: Q01DX009 (ip), vehicle: saline with Tween-80
[14] = dose: 50.0 mg/kg/injection, schedule: Q01DX009 (ip), vehicle: saline with Tween-80
[15] = dose: 100.0 mg/kg/injection, schedule: Q04DX002 (ip), vehicle: Klucel (hydroxypropylcellulose) (HPC)
[16] = dose: 100.0 mg/kg/injection, schedule: Q01DX001 (ip), vehicle: carboxymethylcellulose (CMC)
[17] = dose: 200.0 mg/kg/injection, schedule: Q01DX001 (ip), vehicle: carboxymethylcellulose (CMC)
[18] = dose: 400.0 mg/kg/injection, schedule: Q01DX001 (ip), vehicle: carboxymethylcellulose (CMC)

Measured: T/C

O=C(Nc1ccc(F)c([N+](=O)[O-])c1)c1ccc2c(c1)C(=O)OC2=O
inactive: [1] 99 % of control | dose: 100.0 mg/kg/injection, schedule: Q01DX009 (ip), vehicle: saline 102 % of control and 92 % of control | dose: 100.0 mg/kg/injection, schedule: Q04DX002 (ip), vehicle: saline 104 % of control and 109 % of control | [2] 106 % of control | [3] 99 % of control | dose: 200.0 mg/kg/injection, schedule: Q01DX009 (ip), vehicle: saline 100 % of control and 92 % of control | dose: 200.0 mg/kg/injection, schedule: Q04DX002 (ip), vehicle: saline 96 % of control and 104 % of control | [4] 111 % of control | [5] 104 % of control | dose: 400.0 mg/kg/injection, schedule: Q01DX009 (ip), vehicle: saline 105 % of control and 92 % of control | dose: 400.0 mg/kg/injection, schedule: Q04DX002 (ip), vehicle: saline 96 % of control and 104 % of control | [6] 103 % of control

Cc1ccc(C)c(NC(=O)Nc2ccc(S(N)(=O)=O)cc2)c1
inactive: [7] 91 % of control | [8] 92 % of control | [9] 96 % of control

CNCC(C)CN1CCCCCc2ccccc21 (configuration not stated)
inactive: dose: 3.12 mg/kg/injection, schedule: Q01DX009 (ip), vehicle: saline 100 % of control | dose: 6.25 mg/kg/injection, schedule: Q01DX009 (ip), vehicle: saline 93 % of control | dose: 12.5 mg/kg/injection, schedule: Q01DX009 (ip), vehicle: saline 100 % of control | dose: 25.0 mg/kg/injection, schedule: Q01DX009 (ip), vehicle: saline 97 % of control | dose: 50.0 mg/kg/injection, schedule: Q01DX009 (ip), vehicle: saline 104 % of control

CO/C=C(\C)C(=O)O
inactive: dose: 100.0 mg/kg/injection, schedule: Q01DX001 (ip), vehicle: other 102 % of control | dose: 200.0 mg/kg/injection, schedule: Q01DX001 (ip), vehicle: other 98 % of control | dose: 400.0 mg/kg/injection, schedule: Q01DX001 (ip), vehicle: other 93 % of control

Cc1ccc(N)cc1Cl
inactive: dose: 100.0 mg/kg/injection, schedule: Q04DX003 (ip), vehicle: alcohol 97 % of control | dose: 200.0 mg/kg/injection, schedule: Q04DX003 (ip), vehicle: alcohol 102 % of control | dose: 400.0 mg/kg/injection, schedule: Q04DX003 (ip), vehicle: alcohol 88 % of control

COC(=O)c1cc([N+](=O)[O-])cc2ccccc12
inactive: [7] 99 % of control | [10] 105 % of control | [8] 96 % of control | [11] 94 % of control | [12] 97 % of control

O=C(Nc1ccc(Cl)c(C(F)(F)F)c1)Oc1ccccn1
inactive: dose: 12.5 mg/kg/injection, schedule: Q01DX009 (ip), vehicle: saline with Tween-80 101 % of control | [13] 99 % of control | [14] 92 % of control | dose: 100.0 mg/kg/injection, schedule: Q01DX009 (ip), vehicle: saline with Tween-80 93 % of control

COc1cc2ccc(C(C)NCC(=O)O)cc2cc1OC (configuration not stated)
inactive: [7] 100 % of control | [10] 93 % of control | [8] 100 % of control | [11] 90 % of control | [9] 94 % of control | [12] 90 % of control

CCCCCCCCCCc1ccccc1
inactive: dose: 12.5 mg/kg/injection, schedule: Q04DX002 (ip), vehicle: saline with Tween-80 100 % of control | dose: 25.0 mg/kg/injection, schedule: Q04DX002 (ip), vehicle: saline with Tween-80 97 % of control | dose: 50.0 mg/kg/injection, schedule: Q04DX002 (ip), vehicle: saline with Tween-80 93 % of control | dose: 200.0 mg/kg/injection, schedule: Q04DX002 (ip), vehicle: saline with Tween-80 112 % of control

O=CC1CC2c3ccccc3C1c1ccccc12 (configuration not stated)
inactive: dose: 100.0 mg/kg/injection, schedule: Q01DX009 (ip), vehicle: gum acacia 106 % of control | dose: 100.0 mg/kg/injection, schedule: Q04DX003 (ip), vehicle: gum acacia 95 % of control | dose: 200.0 mg/kg/injection, schedule: Q01DX009 (ip), vehicle: gum acacia 95 % of control | dose: 200.0 mg/kg/injection, schedule: Q04DX003 (ip), vehicle: gum acacia 92 % of control | dose: 400.0 mg/kg/injection, schedule: Q01DX009 (ip), vehicle: gum acacia 102 % of control | dose: 400.0 mg/kg/injection, schedule: Q04DX003 (ip), vehicle: gum acacia 87 % of control

Clc1nc(Cl)c2c3c(sc2n1)CCCC3
inactive: dose: 100.0 mg/kg/injection, schedule: Q01DX001 (ip), vehicle: saline sonified 92 % of control | dose: 200.0 mg/kg/injection, schedule: Q01DX001 (ip), vehicle: saline sonified 107 % of control | dose: 400.0 mg/kg/injection, schedule: Q01DX001 (ip), vehicle: saline sonified 90 % of control

CCCCCC/C(C)=N/Nc1ccc([N+](=O)[O-])cc1[N+](=O)[O-]
inactive: [1] 93 % of control | [3] 102 % of control | [5] 100 % of control

O=S(=O)(O)c1cc(O)c2ccc(NNC(O)c3ccc(Cl)c(Cl)c3)cc2c1 (configuration not stated)
inactive: [2] 87 % of control | [4] 96 % of control | [6] 98 % of control

Cc1cccc(NC(=O)COc2ccc(C)cc2C)c1
inactive: [15] 103 % of control | dose: 200.0 mg/kg/injection, schedule: Q04DX002 (ip), vehicle: Klucel (hydroxypropylcellulose) (HPC) 92 % of control | dose: 400.0 mg/kg/injection, schedule: Q04DX002 (ip), vehicle: Klucel (hydroxypropylcellulose) (HPC) 95 % of control

O=C1c2ccccc2-c2ccccc2C12N=Nc1ccccc12 (configuration not stated)
inactive: dose: 25.0 mg/kg/injection, schedule: Q04DX002 (ip), vehicle: Klucel (hydroxypropylcellulose) (HPC) 101 % of control | dose: 50.0 mg/kg/injection, schedule: Q04DX002 (ip), vehicle: Klucel (hydroxypropylcellulose) (HPC) 97 % of control | [15] 101 % of control

COC(=O)Nc1nc2cc(Cl)c(Cl)cc2[nH]1
inactive: [16] 94 % of control | [17] 100 % of control | [18] 100 % of control

CCOC(=O)C(C)C(=O)c1ccccc1 (configuration not stated)
inactive: dose: 50.0 mg/kg/injection, schedule: Q01DX001 (ip), vehicle: carboxymethylcellulose (CMC) 107 % of control | [16] 102 % of control | [1] 95 % of control | dose: 100.0 mg/kg/injection, schedule: Q01DX009 (ip), vehicle: acetone 96 % of control | [17] 107 % of control | [3] 94 % of control | dose: 200.0 mg/kg/injection, schedule: Q01DX009 (ip), vehicle: acetone 93 % of control | [18] 107 % of control | [5] 94 % of control | dose: 400.0 mg/kg/injection, schedule: Q01DX009 (ip), vehicle: acetone 98 % of control

CN(C)N=Nc1ccc(C(=O)O)cc1
inactive: [13] 108 % of control | [14] 113 % of control and 120 % of control | dose: 59.0 mg/kg/injection, schedule: Q04DX003 (ip), vehicle: saline 108 % of control | dose: 88.0 mg/kg/injection, schedule: Q04DX003 (ip), vehicle: saline 113 % of control | [2] 109 % of control | dose: 133.0 mg/kg/injection, schedule: Q04DX003 (ip), vehicle: saline 119 % of control | dose: 200.0 mg/kg/injection, schedule: Q01DX009 (ip), vehicle: saline with Tween-80 117 % of control | [6] 105 % of control

Source: PubChem BioAssay AID248 (DTP/NCI, 2004)
